Measured values published in PubChem BioAssay (NCI).
“And” between values parts separate entries of the source, which are not always exact repeats. Equal entries are not always repeated.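 In this assay, cells in 96-well plates receive the compound at five concentrations for 48 hours. Endpoints are linearly interpolated between the surrounding concentrations. GI50 is the concentration that inhibits growth by half. TGI: total growth inhibition.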

Assays:
Assay in all cases: NCI-60 cell line screen, 48 h
CCRF-CEM leukemia = system: CCRF-CEM leukemia
RXF 393 renal = system: RXF 393 renal
HOP-62 NSCLC = system: HOP-62 NSCLC
OVCAR-5 ovarian = system: OVCAR-5 ovarian
A549 NSCLC = system: A549 NSCLC
OVCAR-4 ovarian = system: OVCAR-4 ovarian
U251 CNS = system: U251 CNS
HCC-2998 colon = system: HCC-2998 colon
HL-60(TB) leukemia = system: HL-60(TB) leukemia
UACC-62 melanoma = system: UACC-62 melanoma

SMILES	GI50 (CCRF-CEM leukemia)	TGI (CCRF-CEM leukemia) [µM]	GI50 (RXF 393 renal)	TGI (RXF 393 renal)	GI50 (HOP-62 NSCLC)	TGI (HOP-62 NSCLC)	GI50 (OVCAR-5 ovarian)	TGI (OVCAR-5 ovarian)	GI50 (A549 NSCLC)	TGI (A549 NSCLC)	TGI (OVCAR-4 ovarian)	TGI (U251 CNS)	GI50 (HCC-2998 colon)	TGI (HCC-2998 colon)	GI50 (HL-60(TB) leukemia)	TGI (HL-60(TB) leukemia)	GI50 (UACC-62 melanoma) [µM]	TGI (UACC-62 melanoma) [µM]	GI50 (U251 CNS) [µM]	GI50 (OVCAR-4 ovarian) [µM]
CN1CCc2cc3c(cc2C1O)OCO3 (stereo not given)	10.1 µM and > 100 µM	> 100	17.9 µM and > 100 µM	35.2 µM and > 100 µM	18 µM and > 100 µM	36.2 µM and > 100 µM	19 µM and > 100 µM	33.3 µM and > 100 µM	15.9 µM and > 100 µM	31.6 µM and > 100 µM	13.7 µM and > 100 µM	22.9 µM and > 100 µM	18.8 µM and > 100 µM	36.9 µM and > 100 µM	28.8 µM and > 100 µM	69.9 µM and > 100 µM	–	–	–	–
COc1cc(-c2nn3c(/C=C4/C(=O)Nc5ccccc54)c(-c4ccc(C)cc4)nc3s2)cc(OC)c1OC	–	–	2.24 µM	14.7 µM	4.14 µM	23.3 µM	> 100 µM	> 100 µM	2.12 µM	> 100 µM	–	3.43 µM	> 100 µM	> 100 µM	> 100 µM	> 100 µM	5.47	> 100	1.59	–
CCCCCCCCCCCOC(=S)NC(C)C	–	61.4	–	42.9 µM	–	36.6 µM	–	52.5 µM	–	51.1 µM	52 µM	30.2 µM	–	31.1 µM	–	39.1 µM	–	31.1	–	–
CC(=O)N1CCN(C2=Nc3ccccc3CO2)C1=S	32.9 µM	> 100	–	–	> 100 µM	> 100 µM	85.8 µM	> 100 µM	> 100 µM	> 100 µM	> 100 µM	> 100 µM	26.9 µM	97.2 µM	59.7 µM	> 100 µM	83	> 100	> 100	65.3
O=C(c1ccc2ccccc2c1O)N1CCCCC1	–	> 100	–	> 100 µM	–	> 100 µM	–	–	–	–	> 100 µM	> 100 µM	–	> 100 µM	–	> 100 µM	–	> 100	–	–
OCCOc1ccc(-c2cc(-c3ccccn3)nc(-c3ccccn3)c2)cc1	–	40.4	–	0.85 µM	–	> 18.9 µM	–	12.1 µM	–	> 39.5 µM	> 100 µM	> 100 µM	–	> 18.4 µM	–	0.494 µM	–	2.66	–	–
Nc1ncnc2c1ncn2C1OC(COP(=O)(O)CP(=O)(O)O)C(O)C1O (stereo not given)	–	> 100	–	> 100 µM	–	> 100 µM	–	> 100 µM	–	> 100 µM	–	> 100 µM	–	> 100 µM	–	> 100 µM	–	> 100	–	–
Cc1ccc(C)c(NC(=O)C(=O)CC(=O)C2CCOC2=O)c1 (stereo not given)	–	> 100	–	> 100 µM	–	> 100 µM	–	> 100 µM	–	> 100 µM	> 100 µM	> 100 µM	–	–	–	> 100 µM	–	> 100	–	–
O=C(NCCCCCCCCNC(=O)c1cnc2ccccc2n1)c1cnc2ccccc2n1	–	> 100	–	> 100 µM	–	> 100 µM	–	> 100 µM	–	> 100 µM	> 100 µM	> 100 µM	–	–	–	> 100 µM	–	> 100	–	–
